# Results: PubChem BioAssay (NCI)
#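 A five-concentration, 48-hour dose response in 96-well plates underlies each endpoint, interpolated linearly between surrounding concentrations. TGI denotes the concentration required for complete inhibition of growth.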
# How the values were obtained:
# Assay in all cases: inhibition of tumour cell growth, NCI panel, 48 h
# CAKI-1 renal = tested on: CAKI-1 renal
# CCRF-CEM leukemia = tested on: CCRF-CEM leukemia
# EKVX NSCLC = tested on: EKVX NSCLC
# HCT-15 colon = tested on: HCT-15 colon
# HL-60(TB) leukemia = tested on: HL-60(TB) leukemia
# HOP-92 NSCLC = tested on: HOP-92 NSCLC
# IGROV1 ovarian = tested on: IGROV1 ovarian
# K-562 leukemia = tested on: K-562 leukemia
# MDA-MB-231 breast = tested on: MDA-MB-231 breast
# MDA-MB-435 = tested on: MDA-MB-435
# MDA-N = tested on: MDA-N
# MOLT-4 leukemia = tested on: MOLT-4 leukemia
# NCI-H226 lung = tested on: NCI-H226 lung
# NCI-H522 lung = tested on: NCI-H522 lung
# OVCAR-8 ovarian = tested on: OVCAR-8 ovarian
# RPMI-8226 leukemia = tested on: RPMI-8226 leukemia
# SN12C renal = tested on: SN12C renal
# SNB-19 CNS = tested on: SNB-19 CNS
# T-47D breast = tested on: T-47D breast
# UACC-62 melanoma = tested on: UACC-62 melanoma
SMILES,TGI (CAKI-1 renal),TGI (CCRF-CEM leukemia),TGI (EKVX NSCLC),TGI (HCT-15 colon),TGI (HL-60(TB) leukemia),TGI (HOP-92 NSCLC),TGI (IGROV1 ovarian),TGI (K-562 leukemia),TGI (MDA-MB-231 breast),TGI (MDA-MB-435),TGI (MDA-N),TGI (MOLT-4 leukemia),TGI (NCI-H226 lung),TGI (NCI-H522 lung),TGI (OVCAR-8 ovarian),TGI (RPMI-8226 leukemia),TGI (SN12C renal),TGI (SNB-19 CNS),TGI (T-47D breast),TGI (UACC-62 melanoma)
O=c1[nH]nc(-c2ccccc2)n1Nc1ccccc1,> 100 µM,> 100 µM,> 100 µM,> 100 µM,> 100 µM,> 100 µM,> 100 µM,> 100 µM,> 100 µM,> 100 µM,> 100 µM,> 100 µM,> 100 µM,> 100 µM,> 100 µM,> 100 µM,> 100 µM,> 100 µM,> 100 µM,> 100 µM
c1ccc(-c2nnc(-c3ccccn3)c3c2C[C@@H]2C[C@@H]4Cc5c(-c6ccccn6)nnc(-c6ccccn6)c5[C@@H]4[C@H]32)nc1,> 100 µM,> 100 µM,36.8 µM,> 100 µM,58.8 µM,> 100 µM,> 100 µM,> 100 µM,> 100 µM,> 100 µM,> 100 µM,> 100 µM,> 100 µM,> 100 µM,> 100 µM,> 100 µM,> 100 µM,> 100 µM,> 100 µM,> 100 µM
N=C(N)C1CN(CCCCCCCCCCN2CC(C(=N)N)C(=O)NC2=O)C(=O)NC1=O (stereo not given),> 10 µM,> 10 µM,> 10 µM,> 10 µM,> 10 µM,> 10 µM,> 10 µM,> 10 µM,> 10 µM,> 10 µM,> 10 µM,> 10 µM,> 10 µM,> 10 µM,> 10 µM,> 10 µM,> 10 µM,> 10 µM,> 10 µM,> 10 µM
Fc1ccc(C(OCCN2CCN(CCCCl)CC2)c2ccc(F)cc2)cc1,> 100 µM,> 100 µM,> 100 µM,33.8 µM,25.6 µM,49 µM,86.4 µM,60.7 µM,75.5 µM,32.1 µM,45 µM,> 100 µM,40.9 µM,36.8 µM,91 µM,49.5 µM,69.4 µM,> 100 µM,52.5 µM,40.7 µM
O=C1NCC(CSc2nc3cc(C4CCCc5c4[nH]c4ccccc54)ccc3o2)N1 (stereo not given),> 100 µM,> 100 µM,> 100 µM,> 100 µM,> 100 µM,71.2 µM,> 100 µM,> 100 µM,> 100 µM,> 100 µM,> 100 µM,> 100 µM,> 100 µM,> 100 µM,88.1 µM,> 100 µM,> 100 µM,> 100 µM,> 100 µM,> 100 µM
CC(CC[C@@H](O)C(C)(C)O)C1[C@@H](O)CC2(C)C3CC(O)C4C(C)(C)[C@@H](OC5OC(CO)C(O)C(O)C5O)CC[C@@]45C[C@@]35CC[C@]12C (stereo not given in full),> 10 µM,> 10 µM,> 10 µM,> 10 µM,> 10 µM,> 10 µM,> 10 µM,> 10 µM,> 10 µM,> 10 µM,> 10 µM,> 10 µM,> 10 µM,> 10 µM,> 10 µM,> 10 µM,> 10 µM,> 10 µM,> 10 µM,> 10 µM
C=C(CCOC)CCC1CCCCC(=C)[C@H]1OC(C)=O (stereo not given in full),> 100 µM,> 100 µM,> 100 µM,> 100 µM,> 100 µM,> 100 µM,> 100 µM,> 100 µM,> 100 µM,> 100 µM,> 100 µM,> 100 µM,> 100 µM,> 100 µM,> 100 µM,> 100 µM,> 100 µM,> 100 µM,> 100 µM,> 100 µM
Cc1ccc([N+](=O)[O-])cc1S(=O)(=O)Nc1ccc(C2=NOC(c3ccco3)C2)cc1 (stereo not given),70.4 µM,> 100 µM,61.9 µM,32 µM,54.7 µM,88.9 µM,84.4 µM,59.3 µM,33.1 µM,11.8 µM,31.5 µM,46.6 µM,39.6 µM,32.7 µM,> 100 µM,96.8 µM,52.6 µM,37.9 µM,89.4 µM,27.1 µM
CCc1cccc(C(C)(C)C)c1NC(=S)N/C=C(/C#N)C(N)=O,> 100 µM,> 100 µM,> 100 µM,> 100 µM,> 100 µM,72 µM,> 100 µM,> 100 µM,> 100 µM,> 100 µM,> 100 µM,> 100 µM,> 100 µM,> 100 µM,> 100 µM,> 100 µM,> 100 µM,> 100 µM,> 100 µM,> 100 µM
